Source: PMC10648349, “Aromatic Diboronic Acids as Effective KPC/AmpC Inhibitors” (Molecules, 2023)
≈ marks a conversion by molar mass, not a printed value. Where two headings read alike, the source gives them in different places.

Columns and labels:
[1] = system: K. pneumoniae ATCC BAA-1705 KPC-2(+); assay: MIC of tested agent alone, microdilution; format: cell-based
Summary of the method: (§1)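 Broth microdilution checkerboard: β-lactam in seven two-fold dilutions (1–64 mg/L) against tested agent or PBA in three two-fold dilutions (4–16 mg/L). Antibiotic MICs were read at each agent level, with agent-alone MICs run in parallel by microdilution.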

E. coli 77 CMY-2(+) [2] = assay: MIC of tested agent alone, microdilution; format: cell-based
Summary of the method: as §1

[3] = system: K. pneumoniae 83 KPC-3(+), CTX-M-3(+); assay: MIC of tested agent alone, microdilution; format: cell-based
Summary of the method: as §1

[4] = system: P. aeruginosa MUW 700 AmpC(+); assay: MIC of tested agent alone, microdilution; format: cell-based
Summary of the method: as §1

E. coli 76 KPC-2(+) = assay: MIC of tested agent alone, microdilution; format: cell-based
Summary of the method: as §1

[5] = system: K. pneumoniae 81 KPC-3(+); assay: MIC of tested agent alone, microdilution; format: cell-based
Summary of the method: as §1

[6] = system: C. guilliermondii IBA 155; assay: antifungal activity (disc-diffusion, MIC, MFC); format: cell-based, Candida guilliermondii; settings: Meyerozyma guilliermondii, IBA155; for MIC: fluconazole by Etest; for zone of inhibition at 0.4 mg/disc: 0.4 mg per disc, 9 mm disc (fluconazole 0.025 mg, 6 mm disc), - no zone, read-out: Diameter of inhibition zone
Summary of the method: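 Reference drugs were nitrofurantoin for Gram-negative rods, linezolid for Gram-positive bacteria and fluconazole for yeasts. Test agents were dissolved in DMSO and assessed by disc diffusion (0.4 mg/disc), MIC, and MBC or MFC per EUCAST/CLSI.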

[7] = system: K. pneumoniae ATCC 700603 ESBL-positive; assay: combination disc test CDT-ESBL; format: cell-based; settings: Klebsiella pneumoniae
[8] = system: K. pneumoniae 83 KPC-3-positive, CTX-M-3-positive; assay: checkerboard microdilution, antibiotic plus tested agent; format: cell-based, Klebsiella pneumoniae
Summary of the method: (§2)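 Chequerboard layout: tested agent in three two-fold steps (4–16 mg/L) crossed with seven β-lactam dilutions (1–64 mg/L), meropenem for KPC strains and ceftazidime for the cAmpC strain. FICI from first non-growth wells, off-scale MICs raised one doubling; ≤0.5 counts as synergy, >4 antagonism.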

[9] = system: K. pneumoniae 81 KPC-3-positive; assay: as above; format: cell-based, Klebsiella pneumoniae
Summary of the method: as §2

[10] = system: K. pneumoniae ATCC BAA-1705 KPC-2-positive; assay: as above; format: cell-based, Klebsiella pneumoniae
Summary of the method: as §2

[11] = system: E. coli 76 KPC-2-positive; assay: as above; format: cell-based, Escherichia coli
Summary of the method: as §2

E. coli 77 CMY-2(+) [12] = assay: screening test of direct antimicrobial activity (STDA), disc-diffusion; format: cell-based; settings: Escherichia coli; 0.3 mg per disc; - no zone; read-out: Diameter of inhibition zone around disc with tested agent
Method: (§3) Prior to combination disc tests, screening tests of direct antimicrobial activity (STDA) of the tested agent against β-lactamase-producing strains were performed by the disc-diffusion method. Discs with 0.3 mg, 0.1 mg, and 0.03 mg of each agent were examined. The highest amount of an agent that caused no effect on bacterial growth was used in further experiments.

[13] = system: P. aeruginosa MUW 700 AmpC(+); assay: as above; format: cell-based; settings: Pseudomonas aeruginosa; 0.3 mg per disc; - no zone; read-out: Diameter of inhibition zone around disc with tested agent
Method: as §3

[14] = Klebsiella pneumoniae, ATCCBAA1705; read-out: MIC of agent alone
[15] = Escherichia coli; read-out: MIC of agent alone
[16] = Klebsiella pneumoniae; read-out: MIC of agent alone
[17] = Pseudomonas aeruginosa; read-out: MIC of agent alone
[18] = ATCC700603, agent 0.3 mg per disc, read-out: Diameter of inhibition zone, CAZ-30 disc with agent
[19] = Escherichia coli, read-out: MIC of agent alone
[20] = Klebsiella pneumoniae, read-out: MIC of agent alone

Row | SMILES | MIC [1, 14] [µg/mL] | MIC (E. coli 77 CMY-2(+) [2]; [15]) [µg/mL] | MIC [3, 16] [µg/mL] | MIC [4, 17] [µg/mL] | MIC (E. coli 76 KPC-2(+); [15]) [µg/mL] | MIC [5, 16] [µg/mL] | MIC [6] [µg/mL] | zone of inhibition at 300 µg/disc [7, 18] [mm] | Average FICI with ERT [8] | Average FICI with IMI [8] | Average FICI with MEM [8] | The lowest FICI with ERT [8] | The lowest FICI with IMI [8] | The lowest FICI with MEM [8] | Average FICI with ERT [9] | Average FICI with IMI [9] | Average FICI with MEM [9] | The lowest FICI with ERT [9] | The lowest FICI with IMI [9] | The lowest FICI with MEM [9] | other results
1 | OB(O)c1ccc(B(O)O)cc1 [1a] | > 400 | > 400 | > 400 | > 400 | > 400 | > 400 | > 400 | 17 | 0.35 | 0.35 | 0.39 | 0.26 | 0.26 | 0.15 | 0.20 | 0.22 | 0.24 | 0.08 | 0.15 | 0.08 | Average FICI with ERT [10]: 0.43; Average FICI with IMI [10]: 0.43; Average FICI with MEM [10]: 0.30; The lowest FICI with ERT [10]: 0.27; The lowest FICI with IMI [10]: 0.27; The lowest FICI with MEM [10]: 0.15; Average FICI with ERT [11]: 0.22; Average FICI with IMI [11]: 0.30; Average FICI with MEM [11]: 0.31; The lowest FICI with ERT [11]: 0.15; The lowest FICI with IMI [11]: 0.15; The lowest FICI with MEM [11]: 0.15
2 | OB(O)c1cccc(B(O)O)c1 [2a] | > 400 | > 400 | > 400 | > 400 | > 400 | > 400 | > 400 | 16 |  |  |  |  |  |  |  |  |  |  |  |  | zone of inhibition at 0.4 mg/disc [6]: 14 mm
3 | OB(O)c1cc(F)cc(B(O)O)c1 [2b] | > 400 | 400 | > 400 | > 400 | 400 | > 400 | > 400 | 16 |  |  |  |  |  |  |  |  |  |  |  |  | zone of inhibition at 300 µg/disc (E. coli 77 CMY-2(+) [12]): 13 mm; zone of inhibition at 300 µg/disc [13]: 11 mm
4 | OB(O)c1cc(C(F)(F)F)cc(B(O)O)c1F [2e] | > 400 | > 400 | > 400 | > 400 | > 400 | > 400 | > 400 | 16 |  |  |  |  |  |  |  |  |  |  |  |  | zone of inhibition at 0.4 mg/disc [6]: 14 mm
5 | OB(O)c1ccccc1B(O)O [3a, phenylene-1,2-diboronic acid] | 400 | 400 | 400 | 400 | 400 | 400 | > 400 | 18 | 0.17 | 0.17 | 0.13 | 0.10 | 0.10 | 0.06 | 0.14 | 0.13 | 0.10 | 0.07 | 0.10 | 0.07 | Average FICI with ERT [10]: 0.32; Average FICI with IMI [10]: 0.19; Average FICI with MEM [10]: 0.32; The lowest FICI with ERT [10]: 0.17; The lowest FICI with IMI [10]: 0.15; The lowest FICI with MEM [10]: 0.17; Average FICI with ERT [11]: 0.23; Average FICI with IMI [11]: 0.13; Average FICI with MEM [11]: 0.17; The lowest FICI with ERT [11]: 0.17; The lowest FICI with IMI [11]: 0.10; The lowest FICI with MEM [11]: 0.10
6 | OB(O)c1cccc(F)c1B(O)O [3b] | > 400 | > 400 | > 400 | > 400 | > 400 | > 400 | 400 (≈ 2180 µM) | 16 |  |  |  |  |  |  |  |  |  |  |  |  | 
7 | OB(O)c1ccc(F)cc1B(O)O [3c] | > 400 | > 400 | > 400 | > 400 | > 400 | > 400 | > 400 | 16 | 0.43 | 0.35 | 0.22 | 0.27 | 0.26 | 0.15 | 0.22 | 0.18 | 0.18 | 0.15 | 0.14 | 0.14 | Average FICI with ERT [10]: 0.43; Average FICI with IMI [10]: 0.35; Average FICI with MEM [10]: 0.51; The lowest FICI with ERT [10]: 0.27; The lowest FICI with IMI [10]: 0.26; The lowest FICI with MEM [10]: 0.51; Average FICI with ERT [11]: 0.43; Average FICI with IMI [11]: 0.22; Average FICI with MEM [11]: 0.43; The lowest FICI with ERT [11]: 0.27; The lowest FICI with IMI [11]: 0.15; The lowest FICI with MEM [11]: 0.27
8 | OB(O)c1ccc(C(F)(F)F)cc1B(O)O [3e] | > 400 | > 400 | > 400 | > 400 | > 400 | > 400 | 3.12 (≈ 13.3 µM) | 14 |  |  |  |  |  |  |  |  |  |  |  |  | MFC [6]: 400 µg/mL (≈ 1710 µM); zone of inhibition at 0.4 mg/disc [6]: 40 mm
9 | OB(O)c1ccc(B(O)O)c(B(O)O)c1 [4b, benzene-1,2,4-triboronic] | > 400 | > 400 | > 400 | > 400 | > 400 | > 400 | > 400 | 14 |  |  |  |  |  |  |  |  |  |  |  |  | 
10 | OB(O)c1ccsc1B(O)O [5a, thiophene-2,3-diboronic acid] | > 400 | > 400 | > 400 | > 400 | > 400 | > 400 | > 400 | 16 |  |  |  |  |  |  |  |  |  |  |  |  | 
11 | OB(O)c1ccccc1S [7c, 2-mercaptophenylboronic acid] | > 200 | > 200 | > 200 | > 200 | > 200 | > 200 | 25 (≈ 162 µM) | 15 |  |  |  |  |  |  |  |  |  |  |  |  | MFC [6]: 200 µg/mL (≈ 1300 µM); zone of inhibition at 0.4 mg/disc [6]: 40 mm
12 | OB(O)c1ccccc1 [PBA, phenylboronic acid, reference compound] |  |  |  |  |  |  |  |  | 0.51 | 0.68 | 0.35 | 0.51 | 0.51 | 0.26 | 0.51 | 0.43 | 0.51 | 0.51 | 0.27 | 0.51 | MIC ([1]; Klebsiella pneumoniae, ATCCBAA1705, read-out: MIC of agent alone): > 400 µg/mL; MIC (E. coli 77 CMY-2(+) [2]; [19]): > 400 µg/mL; MIC [3, 20]: > 400 µg/mL; MIC ([4]; Pseudomonas aeruginosa, read-out: MIC of agent alone): > 400 µg/mL; MIC (E. coli 76 KPC-2(+); [19]): > 400 µg/mL; MIC [5, 20]: > 400 µg/mL; zone of inhibition at 300 µg/disc ([7]; ATCC700603, read-out: Diameter of inhibition zone, CAZ-30 disc with agent): 14 mm; Average FICI with ERT [10]: 0.85; Average FICI with IMI [10]: 0.43; Average FICI with MEM [10]: 0.43; The lowest FICI with ERT [10]: 0.52; The lowest FICI with IMI [10]: 0.27; The lowest FICI with MEM [10]: 0.27; Average FICI with ERT [11]: 0.35; Average FICI with IMI [11]: 0.22; Average FICI with MEM [11]: 0.26; The lowest FICI with ERT [11]: 0.26; The lowest FICI with IMI [11]: 0.15; The lowest FICI with MEM [11]: 0.26
